The text below walks through data of DBAASP.

Converted amounts (≈) assume the structure as drawn. A value given as a limit tells only on which side of the number the result lay.

What all share (test): ≥ marks a high value that may be exact or a test limit, other limits are often not marked, values filed in µg/mL are converted to µM
Assay [1] concerns Klebsiella pneumoniae CIP 8291.
In a further assay the test system is Listeria ivanovii LMA 94.
For assay [2], the system named is Staphylococcus aureus CIP 677.
The subject of assay [3] is Lactococcus lactis subsp. cremoris I116.

Turning to `CC[C@H](C)[C@H](NC(=O)[C@H](CCCCN)NC(=O)[C@H](CC(C)C)NC(=O)[C@H](C)NC(=O)[C@H](CO)NC(=O)CNC(=O)[C@H](CC(C)C)NC(=O)[C@@H](N)Cc1c[nH]c2ccccc12)C(=O)NCC(=O)N[C@@H](C)C(=O)N[C@@H](CCCCN)C(=O)N[C@@H](CC(C)C)C(=O)N[C@@H](CC(C)C)C(=O)N1CCC[C@H]1C(=O)N[C@@H](CO)C(=O)N[C@H](C(=O)N[C@H](C(=O)NCC(=O)N[C@@H](CC(C)C)C(=O)N[C@@H](Cc1ccccc1)C(=O)N[C@@H](CCCCN)C(=O)N[C@@H](CCCCN)C(=O)N[C@@H](CCCCN)C(=O)N[C@@H](CCCCN)C(=O)N[C@@H](CCC(N)=O)C(=O)O)C(C)C)C(C)C` [WLGSALKIGAKLLPSVVGLFKKKKQ], the MIC in assay [1] was at least 64 µM; in the assay with Listeria ivanovii LMA 94 it was 8 µM (≈ 21.7 µg/mL); in assay [2], 8 µM (≈ 21.7 µg/mL); in assay [3], 4 µM (≈ 10.8 µg/mL).
